# Measured values taken from patent US20240358693A1, “METHODS OF TREATING PAIN” (Aisa Pharma, Inc., priority 2023, published 2024).
# System: participants with SSc-RP
# Assay: Average duration of weekly RP attacks (minutes)
# Assay type: in vivo, human
# Description: The absolute change in average duration of weekly RP attacks from baseline to the end of each dosing period was and will be a secondary outcome variable. The sponsor-developed participant-informed diary was and will be used to record data. Average duration of weekly RP attacks is defined as the total duration of RP attacks divided by total number of RP attacks within the last 7 days of each dosing period. Total duration of RP attacks during the last 7 days of screening period divided by the total number of RP attacks will be used as baseline for the analysis of all periods. The variable will be calculated similar to frequency data as before.
# [1] = Pooled Cilnidipine 10 mg and Cilnidipine 10 mg + Tadalafil 5 mg, Excluding Outliers, by Baseline RCS, subgroup 2, ITT Population - Part A
# [2] = Pooled Cilnidipine 10 mg and Cilnidipine 10 mg + Tadalafil 5 mg, ITT Part A
# [3] = Pooled Cilnidipine 10 mg and Cilnidipine 10 mg + Tadalafil 5 mg, by Baseline RCS, subgroup 1, ITT Population - Part A
# [4] = Pooled Cilnidipine 10 mg and Cilnidipine 10 mg + Tadalafil 5 mg, by Baseline RCS, subgroup 2, ITT Population - Part A
# [5] = Pooled Cilnidipine 20 mg and Cilnidipine 20 mg + Tadalafil 5 mg, n=4, Excluding Outliers, ITT Part A
# [6] = Pooled Cilnidipine 20 mg and Cilnidipine 20 mg + Tadalafil 5 mg, n=4, ITT Part A
# [7] = Pooled Cilnidipine 20 mg and Cilnidipine 20 mg + Tadalafil 5 mg, Baseline RCS subgroup 1 (unnamed), ITT Part A
# [8] = Pooled Cilnidipine 20 mg and Cilnidipine 20 mg + Tadalafil 5 mg, Baseline RCS subgroup 2 (unnamed), ITT Part A
# [9] = Pooled Cilnidipine 20 mg and Cilnidipine 20 mg + Tadalafil 5 mg, Excluding Outliers, Baseline RCS subgroup 1 (unnamed), ITT Part A
# [10] = Pooled Cilnidipine 20 mg and Cilnidipine 20 mg + Tadalafil 5 mg, Excluding Outliers, Baseline RCS subgroup 2 (unnamed), ITT Part A
# [11] = Pooled Cilnidipine 20 mg and Cilnidipine 20 mg + Tadalafil 5 mg, Excluding Outliers, ITT Population - Part A
# [12] = Pooled Cilnidipine 20 mg and Cilnidipine 20 mg + Tadalafil 5 mg, Excluding Outliers, by Baseline RCS, subgroup 1, ITT Population - Part A
smiles,measurement,setting,value
"COCCOC(=O)C1=C(C)NC(C)=C(C(=O)OC/C=C/c2ccccc2)C1c1cccc([N+](=O)[O-])c1 (stereo not shown) [Cilnidipine, cilnidipine]","Average Duration of Weekly RP Attacks (All Attacks) Change from Baseline, Mean",[1],-20.38 min
same,"Average Duration of Weekly RP Attacks (All Attacks) Change from Baseline, Median",[1],-20.38 min
same,"Average Duration of Weekly RP Attacks (All Attacks) Percent Change from Baseline, Mean",[1],−37.36%
same,"Average Duration of Weekly RP Attacks (All Attacks) Percent Change from Baseline, Median",[1],−37.36%
same,"Average Duration of Weekly RP Attacks (All Attacks), Mean",[1],34.17 min
same,"Average Duration of Weekly RP Attacks (All Attacks), Median",[1],34.17 min
same,"Average Duration of Weekly RP Attacks (All Attacks) Change from Baseline, Mean",[2],-9.54 min
same,"Average Duration of Weekly RP Attacks (All Attacks) Change from Baseline, Median",[2],-8.48 min
same,"Average Duration of Weekly RP Attacks (All Attacks) Percent Change from Baseline, Mean",[2],−19.10%
same,"Average Duration of Weekly RP Attacks (All Attacks) Percent Change from Baseline, Median",[2],−21.20%
same,"Average Duration of Weekly RP Attacks (All Attacks), Mean",[2],27.90 min
same,"Average Duration of Weekly RP Attacks (All Attacks), Median",[2],31.52 min
same,"Average Duration of Weekly RP Attacks (All Attacks) Change from Baseline, Mean",[3],-4.13 min
same,"Average Duration of Weekly RP Attacks (All Attacks) Change from Baseline, Median",[3],-4.13 min
same,"Average Duration of Weekly RP Attacks (All Attacks) Percent Change from Baseline, Mean",[3],−9.97%
same,"Average Duration of Weekly RP Attacks (All Attacks) Percent Change from Baseline, Median",[3],−9.97%
same,"Average Duration of Weekly RP Attacks (All Attacks), Mean",[3],24.76 min
same,"Average Duration of Weekly RP Attacks (All Attacks), Median",[3],24.76 min
same,"Average Duration of Weekly RP Attacks (All Attacks) Change from Baseline, Mean",[4],-20.38 min
same,"Average Duration of Weekly RP Attacks (All Attacks) Change from Baseline, Median",[4],-20.38 min
same,"Average Duration of Weekly RP Attacks (All Attacks) Percent Change from Baseline, Mean",[4],−37.36%
same,"Average Duration of Weekly RP Attacks (All Attacks) Percent Change from Baseline, Median",[4],−37.36%
same,"Average Duration of Weekly RP Attacks (All Attacks), Mean",[4],34.17 min
same,"Average Duration of Weekly RP Attacks (All Attacks), Median",[4],34.17 min
same,"Average Duration of Weekly Symptomatic RP Attacks, Change from Baseline, Mean",[5],-7.51 min
same,"Average Duration of Weekly Symptomatic RP Attacks, Change from Baseline, Median",[5],-3.55 min
same,"Average Duration of Weekly Symptomatic RP Attacks, Mean",[5],27.98 min
same,"Average Duration of Weekly Symptomatic RP Attacks, Median",[5],22.96 min
same,"Average Duration of Weekly Symptomatic RP Attacks, Percent Change from Baseline, Mean",[5],−16.40%
same,"Average Duration of Weekly Symptomatic RP Attacks, Percent Change from Baseline, Median",[5],−7.30%
same,"Average Duration of Weekly Symptomatic RP Attacks, Change from Baseline, Mean",[6],-7.51 min
same,"Average Duration of Weekly Symptomatic RP Attacks, Change from Baseline, Median",[6],-3.55 min
same,"Average Duration of Weekly Symptomatic RP Attacks, Mean",[6],27.98 min
same,"Average Duration of Weekly Symptomatic RP Attacks, Median",[6],22.96 min
same,"Average Duration of Weekly Symptomatic RP Attacks, Percent Change from Baseline, Mean",[6],−16.40%
same,"Average Duration of Weekly Symptomatic RP Attacks, Percent Change from Baseline, Median",[6],−7.30%
same,"Average Duration of Weekly Symptomatic RP Attacks, Change from Baseline, Mean",[7],-1.01 min
same,"Average Duration of Weekly Symptomatic RP Attacks, Change from Baseline, Median",[7],3.24 min
same,"Average Duration of Weekly Symptomatic RP Attacks, Mean",[7],16.31 min
same,"Average Duration of Weekly Symptomatic RP Attacks, Median",[7],15.46 min
same,"Average Duration of Weekly Symptomatic RP Attacks, Percent Change from Baseline, Mean",[7],−11.86%
same,"Average Duration of Weekly Symptomatic RP Attacks, Percent Change from Baseline, Median",[7],15.41%
same,"Average Duration of Weekly Symptomatic RP Attacks, Change from Baseline, Mean",[8],-27.00 min
same,"Average Duration of Weekly Symptomatic RP Attacks, Change from Baseline, Median",[8],-27.00 min
same,"Average Duration of Weekly Symptomatic RP Attacks, Mean",[8],63.00 min
same,"Average Duration of Weekly Symptomatic RP Attacks, Median",[8],63.00 min
same,"Average Duration of Weekly Symptomatic RP Attacks, Percent Change from Baseline, Mean",[8],−30.00%
same,"Average Duration of Weekly Symptomatic RP Attacks, Percent Change from Baseline, Median",[8],−30.00%
same,"Average Duration of Weekly Symptomatic RP Attacks, Change from Baseline, Mean",[9],-1.01 min
same,"Average Duration of Weekly Symptomatic RP Attacks, Change from Baseline, Median",[9],3.24 min
same,"Average Duration of Weekly Symptomatic RP Attacks, Mean",[9],16.31 min
same,"Average Duration of Weekly Symptomatic RP Attacks, Median",[9],15.46 min
same,"Average Duration of Weekly Symptomatic RP Attacks, Percent Change from Baseline, Mean",[9],−11.86%
same,"Average Duration of Weekly Symptomatic RP Attacks, Percent Change from Baseline, Median",[9],15.41%
same,"Average Duration of Weekly Symptomatic RP Attacks, Change from Baseline, Mean",[10],-27.00 min
same,"Average Duration of Weekly Symptomatic RP Attacks, Change from Baseline, Median",[10],-27.00 min
same,"Average Duration of Weekly Symptomatic RP Attacks, Mean",[10],63.00 min
same,"Average Duration of Weekly Symptomatic RP Attacks, Median",[10],63.00 min
same,"Average Duration of Weekly Symptomatic RP Attacks, Percent Change from Baseline, Mean",[10],−30.00%
same,"Average Duration of Weekly Symptomatic RP Attacks, Percent Change from Baseline, Median",[10],−30.00%
same,"Average Duration of Weekly RP Attacks (All Attacks) Change from Baseline, Mean",[11],-4.77 min
same,"Average Duration of Weekly RP Attacks (All Attacks) Change from Baseline, Median",[11],-2.73 min
same,"Average Duration of Weekly RP Attacks (All Attacks) Percent Change from Baseline, Mean",[11],−13.86%
same,"Average Duration of Weekly RP Attacks (All Attacks) Percent Change from Baseline, Median",[11],−2.74%
same,"Average Duration of Weekly RP Attacks (All Attacks), Mean",[11],27.61 min
same,"Average Duration of Weekly RP Attacks (All Attacks), Median",[11],22.36 min
same,"Average Duration of Weekly RP Attacks (All Attacks) Change from Baseline, Mean",[12],0.00 min
same,"Average Duration of Weekly RP Attacks (All Attacks) Change from Baseline, Median",[12],2.16 min
same,"Average Duration of Weekly RP Attacks (All Attacks) Percent Change from Baseline, Mean",[12],−10.70%
same,"Average Duration of Weekly RP Attacks (All Attacks) Percent Change from Baseline, Median",[12],17.86%
same,"Average Duration of Weekly RP Attacks (All Attacks), Mean",[12],15.91 min
same,"Average Duration of Weekly RP Attacks (All Attacks), Median",[12],14.27 min
same,"Average Duration of Weekly RP Attacks (All Attacks) Change from Baseline, Mean","Pooled Cilnidipine 20 mg and Cilnidipine 20 mg + Tadalafil 5 mg, Excluding Outliers, by Baseline RCS, subgroup 2, ITT Population - Part A",-19.09 min
